Assay results: patent US20140171357A1, “VANCOMYCIN DERIVATIVES” (Seachald Pharmaceuticals, Inc., priority 2011, published 2014)
In brackets after ≈: the same amount, converted by molar mass.

How the values were obtained:
[1] = system: methicillin-susceptible S. aureus (MSSA, 22); test: MIC broth microdilution, MSSA; settings: MSSA (22)
[2] = system: methicillin-resistant S. aureus (MRSA, 22); test: MIC broth microdilution, MRSA; settings: MRSA (22)
[3] = system: vancomycin-intermediate S. aureus (VISA, 5); test: MIC broth microdilution, VISA
[4] = system: vancomycin-resistant S. aureus (VRSA, 6); test: MIC broth microdilution, VRSA
[5] = system: heterogeneous VISA (hVISA, 10); test: MIC broth microdilution, hVISA
S. pneumoniae (22) = test: MIC broth microdilution, S. pneumoniae; settings: S. pneumoniae (22); MHB + lysed horse blood
[6] = system: Staphylococcus epidermidis (43 strains); test: MIC broth microdilution, S. epidermidis; settings: S. epidermidis (43)
[7] = system: VanA vancomycin-resistant E. faecium (10); test: MIC broth microdilution, VanA E. faecium; settings: E. faecium, VanA (10)
[8] = system: VanB vancomycin-resistant E. faecium (10); test: MIC broth microdilution, VanB E. faecium; settings: E. faecium, VanB (10)
S. aureus ATCC 25923 = test: Neutropenic murine thigh infection model; settings: for AUCc-t (AUC difference between control and treated animals): 24 h time kill
[9] = system: VanA vancomycin-resistant E. faecalis (11); test: MIC broth microdilution, VanA E. faecalis; settings: E. faecalis, VanA (11)
[10] = system: VanB vancomycin-resistant E. faecalis (12); test: MIC broth microdilution, VanB E. faecalis; settings: E. faecalis, VanB (12)
[11] = system: Staphylococcus aureus (65 strains); test: MIC broth microdilution, S. aureus all isolates; settings: S. aureus (65), all resistance subsets
[12] = system: β-hemolytic streptococci (23); test: MIC broth microdilution, β-hemolytic streptococci; settings: β-hemolytic streptococci (23); MHB + lysed horse blood
VanC enterococci (22) = test: MIC broth microdilution, vanC-carrying enterococci; settings: VanC enterococci (22)
[13] = system: vancomycin-susceptible E. faecium (21); test: MIC broth microdilution, vancomycin-susceptible E. faecium; settings: E. faecium, vancomycin-susceptible (21)
[14] = system: vancomycin-susceptible E. faecalis (23); test: MIC broth microdilution, vancomycin-susceptible E. faecalis; settings: E. faecalis, vancomycin-susceptible (23)
[15] = 1 mg/kg single intraperitoneal dose
[16] = 4 mg/kg single intraperitoneal dose
[17] = 16 mg/kg single intraperitoneal dose

SMILES | MIC 50% [1] | MIC 90% [1] | MIC 50% [2] | MIC 90% [2] | MIC 50% [3] | MIC 50% [4] | MIC 50% [5] | MIC 90% [5] | MIC 50% (S. pneumoniae (22)) | MIC 90% (S. pneumoniae (22)) | MIC 50% [6] | MIC 90% [6] | MIC 50% [7] | MIC 90% [7] | MIC 50% [8] | MIC 90% [8] | Max Kill (maximum decrease from initial infection level) (S. aureus ATCC 25923; [15]) | AUCc-t (AUC difference between control and treated animals) (S. aureus ATCC 25923; [15]) | Max Kill (maximum decrease from initial infection level) (S. aureus ATCC 25923; [16]) | AUCc-t (AUC difference between control and treated animals) (S. aureus ATCC 25923; [16]) | further results
CNC(CC(C)C)C(=O)NC1C(=O)NC(CC(N)=O)C(=O)NC2C(=O)NC3C(=O)NC(C(=O)NC(C(=O)O)c4cc(O)c(CNCCOCCOCCOCCN(C)C)c(O)c4-c4cc3ccc4O)C(O)c3ccc(c(Cl)c3)Oc3cc2cc(c3OC2OC(CO)C(O)C(O)C2OC2CC(C)(NCc3ccc(-c4ccc(Cl)cc4)cc3)C(O)C(C)O2)Oc2ccc(cc2Cl)C1O (stereo not drawn) [Compound 14] | 0.12 µg/mL (≈ 0.0638 µM) | 0.25 µg/mL (≈ 0.133 µM) | 0.12 µg/mL (≈ 0.0638 µM) | 0.12 µg/mL (≈ 0.0638 µM) | 0.5 µg/mL (≈ 0.266 µM) | 8 µg/mL (≈ 4.25 µM) | 0.12 µg/mL (≈ 0.0638 µM) | 0.12 µg/mL (≈ 0.0638 µM) | 0.06 µg/mL | 0.12 µg/mL | 0.12 µg/mL (≈ 0.0638 µM) | 0.12 µg/mL (≈ 0.0638 µM) | 2 µg/mL (≈ 1.06 µM) | 4 µg/mL (≈ 2.13 µM) | 0.12 µg/mL (≈ 0.0638 µM) | 0.12 µg/mL (≈ 0.0638 µM) | 0.83 Log10 CFU/thigh | 11.4 (Log10 CFU/thigh)/hr | 0.19 Log10 CFU/thigh | 19.4 (Log10 CFU/thigh)/hr | Max Kill (maximum decrease from initial infection level) (S. aureus ATCC 25923; [17]): 0.03 Log10 CFU/thigh; AUCc-t (AUC difference between control and treated animals) (S. aureus ATCC 25923; [17]): 36.1 (Log10 CFU/thigh)/hr; MIC 50% [9]: 8 µg/mL (≈ 4.25 µM); MIC 90% [9]: 16 µg/mL (≈ 8.5 µM); MIC 50% [10]: 0.25 µg/mL (≈ 0.133 µM); MIC 90% [10]: 0.25 µg/mL (≈ 0.133 µM); MIC 50% [11]: 0.12 µg/mL (≈ 0.0638 µM); MIC 90% [11]: 0.5 µg/mL (≈ 0.266 µM); MIC 50% [12]: 0.06 µg/mL; MIC 90% [12]: 0.06 µg/mL; MIC 50% (VanC enterococci (22)): 0.25 µg/mL (≈ 0.133 µM); MIC 90% (VanC enterococci (22)): 0.5 µg/mL (≈ 0.266 µM); MIC 50% [13]: 0.12 µg/mL (≈ 0.0638 µM); MIC 90% [13]: 0.12 µg/mL (≈ 0.0638 µM); MIC 50% [14]: 0.25 µg/mL (≈ 0.133 µM); MIC 90% [14]: 0.25 µg/mL (≈ 0.133 µM)
CNC(CC(C)C)C(=O)NC1C(=O)NC(CC(N)=O)C(=O)NC2C(=O)NC3C(=O)NC(C(=O)NC(C(=O)O)c4cc(O)c(CNCCOCCOCC[N+](C)(C)C)c(O)c4-c4cc3ccc4O)C(O)c3ccc(c(Cl)c3)Oc3cc2cc(c3OC2OC(CO)C(O)C(O)C2OC2CC(C)(NCc3ccc(-c4ccc(Cl)cc4)cc3)C(O)C(C)O2)Oc2ccc(cc2Cl)C1O (stereo not drawn) [Compound 13] | 0.12 µg/mL | 0.25 µg/mL | 0.12 µg/mL | 0.12 µg/mL | 0.5 µg/mL | 8 µg/mL | 0.12 µg/mL | 0.12 µg/mL | 0.06 µg/mL | 0.12 µg/mL | 0.12 µg/mL | 0.12 µg/mL | 2 µg/mL | 4 µg/mL | 0.12 µg/mL | 0.12 µg/mL | 0.9 Log10 CFU/thigh | 12.6 (Log10 CFU/thigh)/hr | 0.28 Log10 CFU/thigh | 20.6 (Log10 CFU/thigh)/hr | Max Kill (maximum decrease from initial infection level) (S. aureus ATCC 25923; [17]): 0.02 Log10 CFU/thigh; AUCc-t (AUC difference between control and treated animals) (S. aureus ATCC 25923; [17]): 29.5 (Log10 CFU/thigh)/hr; MIC 50% [9]: 8 µg/mL; MIC 90% [9]: 16 µg/mL; MIC 50% [10]: 0.25 µg/mL; MIC 90% [10]: 0.5 µg/mL; MIC 50% [11]: 0.12 µg/mL; MIC 90% [11]: 0.5 µg/mL; MIC 50% [12]: 0.06 µg/mL; MIC 90% [12]: 0.06 µg/mL; MIC 50% (VanC enterococci (22)): 0.25 µg/mL; MIC 90% (VanC enterococci (22)): 1 µg/mL; MIC 50% [13]: 0.12 µg/mL; MIC 90% [13]: 0.12 µg/mL; MIC 50% [14]: 0.25 µg/mL; MIC 90% [14]: 0.25 µg/mL
CNC(CC(C)C)C(=O)NC1C(=O)NC(CC(N)=O)C(=O)NC2C(=O)NC3C(=O)NC(C(=O)NC(C(=O)O)c4cc(O)c(CNCCOCCOCCN(C)C)c(O)c4-c4cc3ccc4O)C(O)c3ccc(c(Cl)c3)Oc3cc2cc(c3OC2OC(CO)C(O)C(O)C2OC2CC(C)(NCc3ccc(-c4ccc(Cl)cc4)cc3)C(O)C(C)O2)Oc2ccc(cc2Cl)C1O (stereo not drawn) [Compound 12] | 0.12 µg/mL (≈ 0.0653 µM) | 0.12 µg/mL (≈ 0.0653 µM) | 0.12 µg/mL (≈ 0.0653 µM) | 0.12 µg/mL (≈ 0.0653 µM) | 0.25 µg/mL (≈ 0.136 µM) | 8 µg/mL (≈ 4.35 µM) | 0.12 µg/mL (≈ 0.0653 µM) | 0.12 µg/mL (≈ 0.0653 µM) | 0.06 µg/mL | 0.06 µg/mL | 0.06 µg/mL (≈ 0.0326 µM) | 0.12 µg/mL (≈ 0.0653 µM) | 2 µg/mL (≈ 1.09 µM) | 4 µg/mL (≈ 2.18 µM) | 0.12 µg/mL (≈ 0.0653 µM) | 0.12 µg/mL (≈ 0.0653 µM) | 1.1 Log10 CFU/thigh | 6.1 (Log10 CFU/thigh)/hr | −0.03 Log10 CFU/thigh | 17.6 (Log10 CFU/thigh)/hr | Max Kill (maximum decrease from initial infection level) (S. aureus ATCC 25923; [17]): 0.0005 Log10 CFU/thigh; AUCc-t (AUC difference between control and treated animals) (S. aureus ATCC 25923; [17]): 29.3 (Log10 CFU/thigh)/hr; MIC 50% [9]: 8 µg/mL (≈ 4.35 µM); MIC 90% [9]: 16 µg/mL (≈ 8.7 µM); MIC 50% [10]: 0.25 µg/mL (≈ 0.136 µM); MIC 90% [10]: 0.25 µg/mL (≈ 0.136 µM); MIC 50% [11]: 0.12 µg/mL (≈ 0.0653 µM); MIC 90% [11]: 0.5 µg/mL (≈ 0.272 µM); MIC 50% [12]: 0.06 µg/mL; MIC 90% [12]: 0.06 µg/mL; MIC 50% (VanC enterococci (22)): 0.25 µg/mL (≈ 0.136 µM); MIC 90% (VanC enterococci (22)): 0.5 µg/mL (≈ 0.272 µM); MIC 50% [13]: 0.12 µg/mL (≈ 0.0653 µM); MIC 90% [13]: 0.12 µg/mL (≈ 0.0653 µM); MIC 50% [14]: 0.25 µg/mL (≈ 0.136 µM); MIC 90% [14]: 0.25 µg/mL (≈ 0.136 µM)
